In US20110280807A1, “Methods and Models for Stress-Induced Analgesia” (UNIVERSITY OF GEORGIA RESEARCH FOUNDATION, INC., priority 2005, published 2011):
Entries after “also recorded” stand apart in the source; their conditions may differ.

Key:
rats [1] = experiment: Δ^9-THC sensitization study (antinociception after stress or no stress); assay type: in vivo, rat; details: 10 mg/kg i.p. 24 h following stress or no stress; tail-flick 28-32 min after drug
[2] = test system: rats subjected to brief, continuous footshock; experiment: Nonopioid stress-induced analgesia after brief continuous footshock, tail-flick test, systemic drug; assay type: in vivo, rat
rats [3] = experiment: Tail-flick latencies in the absence of the stressor / basal nociceptive thresholds; assay type: in vivo, rat
vanilloid VR1 receptors = vanilloid VR1 receptors (Homo sapiens, UniProt Q8NER1); details: cited from earlier work
[4] = test system: dorsolateral periaqueductal gray; experiment: PAG injection studies: microinjection into dorsolateral periaqueductal gray, stress analgesia; assay type: in vivo, rat; details: for basal nociceptive thresholds immediately prior to the stressor: after microinjection into dorsolateral periaqueductal gray
rats [5] = experiment: Tolerance studies: repeated agonist injections, then footshock stress analgesia; assay type: in vivo, rat
rats [6] = experiment: Morphine antinociception in rats treated chronically with WIN55,212-2 or vehicle; assay type: in vivo, rat; details: morphine 2.5 mg/kg s.c. on day 15
[7] = 5 mg/kg i.p. 20 min prior to footshock

Sequence of vanilloid VR1 receptors (Q8NER1 whole entry): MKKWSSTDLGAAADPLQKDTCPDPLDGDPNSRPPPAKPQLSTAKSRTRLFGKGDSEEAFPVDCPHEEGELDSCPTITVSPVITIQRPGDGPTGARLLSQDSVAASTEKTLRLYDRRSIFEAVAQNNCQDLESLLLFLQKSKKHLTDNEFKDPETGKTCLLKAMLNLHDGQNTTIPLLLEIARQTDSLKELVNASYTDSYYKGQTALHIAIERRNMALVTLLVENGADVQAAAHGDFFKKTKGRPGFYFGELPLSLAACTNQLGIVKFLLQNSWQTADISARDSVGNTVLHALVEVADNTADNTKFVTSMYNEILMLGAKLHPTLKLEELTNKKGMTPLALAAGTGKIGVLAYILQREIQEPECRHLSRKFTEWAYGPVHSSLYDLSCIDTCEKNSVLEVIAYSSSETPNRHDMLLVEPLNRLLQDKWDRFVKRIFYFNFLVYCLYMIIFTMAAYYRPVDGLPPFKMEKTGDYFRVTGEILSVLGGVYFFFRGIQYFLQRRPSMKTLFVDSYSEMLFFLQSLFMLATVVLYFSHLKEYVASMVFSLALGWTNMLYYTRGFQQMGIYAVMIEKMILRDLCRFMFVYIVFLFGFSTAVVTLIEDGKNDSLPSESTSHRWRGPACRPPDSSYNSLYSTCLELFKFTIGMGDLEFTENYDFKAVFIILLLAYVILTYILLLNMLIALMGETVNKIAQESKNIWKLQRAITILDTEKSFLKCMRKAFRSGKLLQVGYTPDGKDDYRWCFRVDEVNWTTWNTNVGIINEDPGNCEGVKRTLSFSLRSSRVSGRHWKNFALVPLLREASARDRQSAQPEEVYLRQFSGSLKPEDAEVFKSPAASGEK

## CCCCCc1cc(O)c2c(c1)OC(C)(C)[C@@H]1CCC(C)=C[C@@H]21 [Δ^9-THC, Δ^9-tetrahydrocannabinol]
Rats [1]
  Δ^9-THC-induced antinociception in shocked vs non-shocked rats: greater in rats subjected to footshock; also recorded: greater in rats subjected previously to the stressor
[2]; 10 mg/kg i.p. 20 min prior to footshock (Δ^9-THC), vs vehicle
  effect on stress analgesia (tail-flick latencies after footshock): potentiated SIA relative to vehicle; also recorded: enhanced the magnitude and the duration of nonopioid stress analgesia

## SR144528
[2]; [7]
  effect on stress analgesia (tail-flick latencies after footshock): not naltrexone or SR144528 blocks SIA; also recorded: neither the opioid antagonist naltrexone (14 mg/kg i.p.) nor the CB2 antagonist SR144528 altered stress analgesia

## Cc1c(C(=O)NN2CCCCC2)nn(-c2ccc(Cl)cc2Cl)c1-c1ccc(I)cc1 [AM251]
[2]; [7]
  effect on stress analgesia (tail-flick latencies after footshock): suppressed SIA; also recorded: blocked this stress analgesia
Rats [3]; 5 mg/kg i.p., before the stressor
  basal nociceptive thresholds: absence of changes in basal nociceptive thresholds

## Oc1cc2c(cc1O)CN(C(=S)NCCc1ccc(Cl)cc1)CCC2 [capsazepine]
[2]; 10 mg/kg i.p. 20 min prior to footshock (capsazepine)
  effect on stress analgesia (tail-flick latencies after footshock): failed to alter SIA; also recorded: did not alter stress analgesia

## O=C1CC[C@@]2(O)[C@H]3Cc4ccc(O)c5c4[C@@]2(CCN3CC2CC2)[C@H]1O5 [naltrexone]
[2]; 14 mg/kg i.p. 20 min prior to footshock
  effect on stress analgesia (tail-flick latencies after footshock): not naltrexone or SR144528 blocks SIA; also recorded: neither the opioid antagonist naltrexone (14 mg/kg i.p.) nor the CB2 antagonist SR144528 altered stress analgesia

## Cc1c(C(=O)NN2CCCCC2)nn(-c2ccc(Cl)cc2Cl)c1-c1ccc(Cl)cc1 [SR141716A]
Vanilloid VR1 receptors
  inhibition of vanilloid VR1 receptors: inhibits vanilloid VR1 receptors at high concentrations
[4]; 1 μg into dorsolateral periaqueductal gray, 5 min before footshock
  effect on stress analgesia after site-specific administration: suppressed; also recorded: blocked nonopioid stress analgesia
[4]
  basal nociceptive thresholds immediately prior to the stressor: absence of changes in basal nociceptive thresholds
[2]; 1 mg/kg i.p. ten min prior to AA-5-HT 10 mg/kg i.p.
  effect on AA-5-HT potentiation of stress analgesia: blocked
[2]; [7]
  effect on stress analgesia (tail-flick latencies after footshock): blocks SIA; also recorded: markedly attenuated
Rats [3]; no footshock, same times
  tail-flick latencies in the absence of the stressor: failed to alter tail-flick latencies in the absence of footshock

## CN1CC[C@]23c4c5ccc(O)c4O[C@H]2[C@@H](O)C=C[C@H]3[C@H]1C5 [morphine]
Rats [5]; 10 mg/kg s.c. x 7 days, days 1 and 7
  post-morphine tail-flick latencies (tolerance to morphine antinociception): higher on day 1 compared to day 7
Rats [5]; chronic morphine 10 mg/kg s.c. x 7 days vs vehicle, footshock 24 h after last injection
  stress analgesia in morphine-tolerant rats: SIA did not differ; also recorded: No differences in stress analgesia
Rats [6]
  morphine analgesia in cannabinoid-tolerant group relative to controls: modest enhancement in morphine analgesia
Rats [6]; rats treated chronically with WIN55,212-2
  post-morphine tail-flick latencies Mean±SEM: 6.2 ± 0.25 s
Rats [6]; rats treated chronically with vehicle
  post-morphine tail-flick latencies Mean±SEM: 5.3 ± 0.21 s

## CCCCC/C=C\C/C=C\C/C=C\C/C=C\CCCC(=O)NCCc1c[nH]c2ccc(O)cc12 [AA-5-HT, arachidonoylserotonin]
[4]; 10 μg into dorsolateral periaqueductal gray, 35 min before footshock
  effect on stress analgesia after site-specific administration: enhanced SIA; also recorded: enhanced nonopioid stress analgesia
[4]
  basal nociceptive thresholds immediately prior to the stressor: absence of changes in basal nociceptive thresholds
[2]; 10 mg/kg i.p., footshock 65 min following administration (FAAH inhibition study)
  effect on stress analgesia (tail-flick latencies after footshock): Potentiation of SIA; also recorded: increased the magnitude and duration of cannabinoid stress analgesia

## Cc1c(C(=O)c2cccc3ccccc23)c2cccc3c2n1[C@H](CN1CCOCC1)CO3 [WIN55,212-2]
Rats [5]; 10 mg/kg i.p. on day 14, 24 h prior to footshock, vs vehicle
  stress analgesia after acute cannabinoid: stress analgesia was increased
Rats [5]; 10 mg/kg i.p. x 14 days, days 2, 7 and 14
  post-injection tail-flick latencies (tolerance to cannabinoid antinociception): higher on day 2 compared to day 7 or 14; also recorded: induced tolerance to cannabinoid antinociception
Rats [5]; chronic 10 mg/kg i.p. x 14 days, footshock 24 h after last injection, vs vehicle or acute group
  stress analgesia in cannabinoid-tolerant rats: SIA was attenuated; also recorded: Stress analgesia was attenuated

## CCCCC/C=C\C/C=C\C/C=C\C/C=C\CCCC(=O)NCCO [anandamide, arachidonylethanolamide]
Vanilloid VR1 receptors
  binding to VR1: binds to VR1 with low affinity
